Reference: patent US20160310472A1, “PHARMACEUTICAL COMPOSITIONS COMPRISING SULBACTAM AND IMIPENEM” (priority 2013, published 2016)

Columns and labels:
[1] = test system: A. baumannii S-224 strain; experiment: Time-kill study, viable bacterial count in broth, A. baumannii S-224; format: cell-based, Acinetobacter baumannii
Protocol: (§1) The antibacterial activity of compositions according to the invention against various bacterial strains was investigated. In a typical study, freshly grown cultures were diluted to required cell density (initial starting inoculum) in Brain Heart Infusion broth medium (BD, USA). The antibacterial agents (either alone or in combination) in required concentrations were added into the culture containing medium. The samples were incubated under shaking conditions (120 rpm) at 37° C. Enumeration of viable bacterial count was undertaken, every 2 hours, by diluting in normal saline and plating on to Tryptic Soya Agar plates (BD, USA). The plates were incubated for 24 hours to arrive at a viable bacterial count.
A. baumannii S-224 strain expresses both Class D beta-lactamases (OXA-51 and OXA-23 like) and Class B metalo-beta-lactamases (NDM).

A. baumannii S-12 strain = experiment: Time-kill study, viable bacterial count in broth, A. baumannii S-12; format: cell-based, Acinetobacter baumannii
Protocol: as §1

A. baumannii S-5 strain = experiment: Mouse Systemic Infection Model; conditions: agent alone; Swiss albino mice, subcutaneous TID from 1 hour post infection, survival over 10 days

SMILES: C[C@@H](O)[C@H]1C(=O)N2C(C(=O)O)=C(SCCN=CN)C[C@H]12 [Imipenem]
- Bacterial count ([1]; Imipenem 8 mcg/ml, 0 hour): 6.74 log CFU/ml
- Bacterial count ([1]; Imipenem 8 mcg/ml, 2 hours): 7.20 log CFU/ml
- Bacterial count ([1]; Imipenem 8 mcg/ml, 4 hours): 8.11 log CFU/ml
- Bacterial count ([1]; Imipenem 8 mcg/ml, 6 hours): 8.04 log CFU/ml
- Bacterial count ([1]; Imipenem 16 mcg/ml, 0 hour): 6.74 log CFU/ml
- Bacterial count ([1]; Imipenem 16 mcg/ml, 2 hours): 7.17 log CFU/ml
- Bacterial count ([1]; Imipenem 16 mcg/ml, 4 hours): 8.04 log CFU/ml
- Bacterial count ([1]; Imipenem 16 mcg/ml, 6 hours): 7.90 log CFU/ml
- Bacterial count (A. baumannii S-12 strain; Imipenem 8 mcg/ml, 0 hour): 6.87 log CFU/ml
- Bacterial count (A. baumannii S-12 strain; Imipenem 8 mcg/ml, 2 hours): 7.69 log CFU/ml
- Bacterial count (A. baumannii S-12 strain; Imipenem 8 mcg/ml, 4 hours): 8.27 log CFU/ml
- Bacterial count (A. baumannii S-12 strain; Imipenem 8 mcg/ml, 6 hours): 8.27 log CFU/ml
- Bacterial count (A. baumannii S-12 strain; Imipenem 16 mcg/ml, 0 hour): 6.87 log CFU/ml
- Bacterial count (A. baumannii S-12 strain; Imipenem 16 mcg/ml, 2 hours): 7.69 log CFU/ml
- Bacterial count (A. baumannii S-12 strain; Imipenem 16 mcg/ml, 4 hours): 8.11 log CFU/ml
- Bacterial count (A. baumannii S-12 strain; Imipenem 16 mcg/ml, 6 hours): 7.84 log CFU/ml
- ED50 (A. baumannii S-5 strain): >50 mg/kg body weight
- ED90 (A. baumannii S-5 strain): >50 mg/kg body weight

SMILES: CC1(C)[C@H](C(=O)O)N2C(=O)C[C@H]2S1(=O)=O [Sulbactam]
- Bacterial count ([1]; Sulbactam 16 mcg/ml, 0 hour): 6.74 log CFU/ml
- Bacterial count ([1]; Sulbactam 16 mcg/ml, 2 hours): 6.65 log CFU/ml
- Bacterial count ([1]; Sulbactam 16 mcg/ml, 4 hours): 7.17 log CFU/ml
- Bacterial count ([1]; Sulbactam 16 mcg/ml, 6 hours): 7.27 log CFU/ml
- Decrease in number of colony forming units (in words) (A. baumannii S-12 strain; S-12 strain): not observed
- Bacterial count (A. baumannii S-12 strain; Sulbactam 16 mcg/ml, 0 hour): 6.87 log CFU/ml
- Bacterial count (A. baumannii S-12 strain; Sulbactam 16 mcg/ml, 2 hours): 5.84 log CFU/ml
- Bacterial count (A. baumannii S-12 strain; Sulbactam 16 mcg/ml, 4 hours): 5.27 log CFU/ml
- Bacterial count (A. baumannii S-12 strain; Sulbactam 16 mcg/ml, 6 hours): 6.23 log CFU/ml
